From the supplement of paper PMC10307832

Assays:
Assay in all cases: relative viability (nuclei count vs DMSO), 5 days (fraction); higher = more cells survive
Sorafenib + Navitoclax = compound: CNC(=O)c1cc(Oc2ccc(NC(=O)Nc3ccc(Cl)c(C(F)(F)F)c3)cc2)ccn1 [Sorafenib] + CC1(C)CCC(c2ccc(Cl)cc2)=C(CN2CCN(c3ccc(C(=O)NS(=O)(=O)c4ccc(N[C@H](CCN5CCOCC5)CSc5ccccc5)c(S(=O)(=O)C(F)(F)F)c4)cc3)CC2)C1 [Navitoclax] (partner 0.5 µM)
Outline: (§1)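 The day after seeding in 1536-well plates, lung cancer cell lines were treated by pin tool with a single drug, or with a fixed anchor-drug dose together with five library-drug doses (not always all listed) in √10 steps. After 5 days, a combined fix-and-stain solution (final 0.05% Triton X-100, 1% formaldehyde, 1 ug/ml Hoechst) was added. Nuclei counted on 4× images gave relative viability as treated counts over vehicle counts, reported as the median of duplicate plates.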

Sorafenib + Tozasertib = compound: CNC(=O)c1cc(Oc2ccc(NC(=O)Nc3ccc(Cl)c(C(F)(F)F)c3)cc2)ccn1 [Sorafenib] + Cc1cc(Nc2cc(N3CCN(C)CC3)nc(Sc3ccc(NC(=O)C4CC4)cc3)n2)n[nH]1 [Tozasertib] (partner 0.1 µM)
Outline: as §1

Sorafenib + Pemetrexed = compound: CNC(=O)c1cc(Oc2ccc(NC(=O)Nc3ccc(Cl)c(C(F)(F)F)c3)cc2)ccn1 [Sorafenib] + Nc1nc2[nH]cc(CCc3ccc(C(=O)N[C@@H](CCC(=O)O)C(=O)O)cc3)c2c(=O)[nH]1 [Pemetrexed] (partner 0.2 µM)
Outline: as §1

Sorafenib + Decitabine = compound: CNC(=O)c1cc(Oc2ccc(NC(=O)Nc3ccc(Cl)c(C(F)(F)F)c3)cc2)ccn1 [Sorafenib] + Nc1ncn([C@H]2C[C@H](O)[C@@H](CO)O2)c(=O)n1 [Decitabine] (partner 2 µM)
Outline: as §1

Sorafenib + Vorinostat = compound: CNC(=O)c1cc(Oc2ccc(NC(=O)Nc3ccc(Cl)c(C(F)(F)F)c3)cc2)ccn1 [Sorafenib] + O=C(CCCCCCC(=O)Nc1ccccc1)NO [Vorinostat] (partner 1 µM)
Outline: as §1

| Cell Line | relative viability (Sorafenib + Navitoclax; first compound 0.08 µM) | relative viability (Sorafenib + Navitoclax; first compound 0.253 µM) | relative viability (Sorafenib + Navitoclax; first compound 2.53 µM) | relative viability (Sorafenib + Navitoclax; first compound 8 µM) | relative viability (Sorafenib + Tozasertib; first compound 0.08 µM) | relative viability (Sorafenib + Tozasertib; first compound 0.253 µM) | relative viability (Sorafenib + Tozasertib; first compound 2.53 µM) | relative viability (Sorafenib + Tozasertib; first compound 8 µM) | relative viability (Sorafenib + Pemetrexed; first compound 0.08 µM) | relative viability (Sorafenib + Pemetrexed; first compound 0.253 µM) | relative viability (Sorafenib + Pemetrexed; first compound 2.53 µM) | relative viability (Sorafenib + Pemetrexed; first compound 8 µM) | relative viability (Sorafenib + Decitabine; first compound 0.08 µM) | relative viability (Sorafenib + Decitabine; first compound 0.253 µM) | relative viability (Sorafenib + Decitabine; first compound 2.53 µM) | relative viability (Sorafenib + Decitabine; first compound 8 µM) | relative viability (Sorafenib + Vorinostat; first compound 0.08 µM) | relative viability (Sorafenib + Vorinostat; first compound 0.253 µM) | relative viability (Sorafenib + Vorinostat; first compound 2.53 µM) | relative viability (Sorafenib + Vorinostat; first compound 8 µM) |
| --- | --- | --- | --- | --- | --- | --- | --- | --- | --- | --- | --- | --- | --- | --- | --- | --- | --- | --- | --- | --- |
| NCI-H2405 | 1.16 | 0.88 | 0.7 | 0.348 | 0.819 | 0.743 | 0.751 | 0.613 | 1.12 | 0.902 | 1.13 | 0.982 | 0.754 | 0.726 | 0.737 | 0.577 | 1.09 | 0.801 | 1.09 | 0.706 |
| NCI-H1993 | 1.07 | 0.973 | 0.914 | 0.753 | 0.601 | 0.565 | 0.584 | 0.608 | 0.566 | 0.597 | 0.528 | 0.43 | – | 0.478 | 0.665 | 0.489 | 0.973 | 0.726 | 1.1 | 0.633 |
| NCI-H1355 | 0.916 | 0.983 | 0.86 | 0.668 | 0.55 | 0.592 | 0.416 | 0.354 | 1.04 | 0.953 | 1.02 | 0.963 | 0.353 | 0.308 | 0.336 | 0.321 | 0.752 | 0.563 | 0.662 | 0.505 |
| NCI-H2009 | 1.11 | 1.02 | 1.1 | 0.937 | 0.775 | 0.666 | 0.723 | 0.498 | 1.02 | 0.909 | 0.83 | 0.959 | 0.375 | 0.394 | 0.315 | 0.227 | 0.703 | 0.666 | 0.699 | 0.719 |
| NCI-H2085 | 1.21 | 1.07 | 1.17 | 0.901 | 0.849 | 0.833 | 0.611 | – | 1.02 | 0.98 | 1.15 | 0.762 | 0.608 | 0.566 | 0.573 | 0.49 | 0.852 | 0.795 | 1.01 | 0.78 |
| HCC-78 | 0.814 | 0.731 | 0.739 | 0.84 | 0.391 | 0.371 | 0.492 | 0.493 | 0.936 | 0.879 | 0.847 | 0.888 | 0.752 | 0.634 | 0.608 | 0.596 | 0.459 | 0.331 | 0.532 | 0.496 |
| NCI-H3122 | 1.04 | 1.06 | 1.03 | 0.753 | 0.44 | 0.363 | 0.363 | 0.301 | 0.209 | 0.194 | 0.222 | 0.167 | 0.384 | 0.467 | 0.375 | 0.189 | 1.03 | 0.932 | – | 0.846 |
| EMC-BAC-2 | 1.22 | 1.06 | 1.18 | 1.11 | 0.297 | 0.186 | 0.266 | 0.295 | 0.438 | 0.389 | 0.41 | 0.516 | 0.925 | – | – | 0.757 | 0.481 | – | 0.546 | 0.479 |
| ChaGo-K-1 | 1.23 | 0.866 | 1.11 | 0.576 | 0.229 | 0.235 | 0.215 | 0.192 | 0.247 | 0.258 | 0.264 | 0.248 | 0.532 | 0.537 | 0.51 | 0.471 | 0.737 | 0.689 | 0.775 | 0.557 |
| NCI-H2347 | 0.932 | 0.676 | 0.84 | 0.815 | 0.646 | 0.599 | 0.509 | 0.426 | 0.442 | 0.398 | 0.425 | 0.413 | 0.592 | 0.628 | 0.675 | 0.594 | 0.694 | 0.543 | 0.524 | 0.52 |
| NCI-H1915 | 0.785 | 0.706 | 0.681 | 0.798 | 0.454 | 0.409 | 0.397 | 0.374 | 0.423 | 0.45 | 0.433 | 0.504 | 0.26 | 0.254 | 0.268 | 0.247 | 0.444 | 0.364 | 0.355 | 0.582 |
| HCC-15 | 0.748 | 0.713 | 0.804 | 0.522 | 0.443 | 0.438 | 0.372 | 0.179 | 0.253 | 0.211 | 0.22 | 0.145 | 0.679 | 0.631 | 0.723 | 0.321 | 0.973 | 0.764 | 0.83 | 0.576 |
| 201T | 1.19 | 1.24 | 1.27 | 1.18 | 0.964 | 0.925 | 0.955 | 0.827 | 0.334 | 0.302 | 0.334 | 0.328 | 0.854 | 0.816 | 0.867 | 0.879 | 1.01 | 0.946 | 0.963 | 0.926 |
| LK-2 | 0.904 | 0.793 | 0.819 | 0.477 | 0.17 | 0.226 | 0.17 | 0.153 | 0.331 | 0.254 | 0.303 | 0.194 | 0.329 | 0.235 | 0.236 | 0.182 | 0.371 | 0.298 | 0.143 | 0.148 |
| NCI-H1650 | 1.2 | 1.1 | 1.29 | 1.29 | 0.397 | 0.39 | 0.361 | 0.257 | 0.405 | 0.454 | 0.531 | 0.334 | 0.443 | 0.61 | 0.49 | 0.439 | 0.505 | 0.567 | 0.633 | 0.424 |
| NCI-H647 | 1.2 | 1.09 | 0.97 | 0.538 | 0.246 | 0.218 | 0.165 | 0.0549 | 0.171 | 0.141 | 0.126 | 0.0896 | 0.4 | 0.316 | 0.355 | 0.184 | 0.473 | 0.453 | 0.257 | 0.0463 |
